Patent publication US7425537B2, “SH2 domain binding inhibitors” (The United States of America as represented by the …, priority 2000, dated 2008)

Columns and labels:
c-Met-Grb2 interaction = target: T1, c-Met-Grb2 interaction (Mus musculus, UniProt Q60631); assay: c-Met-Grb2 co-immunoprecipitation/immunoblot in intact 32D c-met cells after HGF/NK1 stimulation; format: cell-based, murine; details: 32D c-met cells pretreated 16 h with 30 nM or 300 nM prior to HGF/NK1 stimulation
T1 construct: endogenous in cells; host or cells: murine 32D c-met cells
T1 sequence (Q60631 whole entry): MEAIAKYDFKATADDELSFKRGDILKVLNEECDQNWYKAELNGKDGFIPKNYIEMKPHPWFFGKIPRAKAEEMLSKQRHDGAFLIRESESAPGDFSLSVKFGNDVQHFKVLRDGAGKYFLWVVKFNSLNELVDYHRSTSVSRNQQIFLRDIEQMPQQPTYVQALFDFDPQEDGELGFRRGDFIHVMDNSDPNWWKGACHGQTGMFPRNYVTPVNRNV
Protocol: To characterize the time period and dose which the Grb2 SH2 domain inhibitor (antagonist) compound of formula 4 enters intact cells, the murine IL-3-dependent cell line 32D c-met was used. The effects of the inhibitor on c-Met-Grb2 interaction was examined by co-immunoprecipitation/immunoblot analysis. Cells were cultured in RPMI 1640+15% FBS and 5% WEHI-3B conditioned medium. Intact 32Dc-met cells were treated with different amount (3, 30, 300 nM) of the compound for 1, 2, 4, and 16 h, then briefly stimulated with HGF/NK1 for 10 minutes before lysis, immunoprecipitated with anti-Grb2 antibodies (Santa Cruz), and immunoblotting with anti-c-Met (Santa Cruz), or anti-Grb2 (Transduction Lab). HGF/NK1 stimulated co-immunoprecipitation of the 145 kDa c-Met beta subunit with Grb2. When cells were pretreated for 16 h with 30 nM or 300 nM compound of formula 4 prior to HGF/NK1 stimulation, the amount of HGF receptor that was co-immunoprecipitated with Grb2 was reduced by approximately 50%.

[1] = system: erbB-2 driven breast cancer cells; assay: Assay of cell proliferation (direct cell counting); format: cell-based; details: FIG. 26, read-out: IC50, cell growth inhibition

| Reduction of amount of HGF receptor co-immunoprecipitated with Grb2 (c-Met-Grb2 interaction) | IC50 [1] [nM] | melting point | SMILES |
| --- | --- | --- | --- |
| approximately 50% |  |  | NC(=O)C[C@@H]1NC(=O)C2(CCCCC2)NC(=O)C[C@@H](c2ccc(CP(=O)(O)O)cc2)C=CC[C@@H](Cc2cccc3ccccc23)CNC1=O [Compound 4a, 2-[(9S, 13S, 17R)-8, 11, 20-triaza-13-(naphthylmethyl)-7, 10, 19-trioxo-17-[4-(phosphonomethyl)phenyl]spiro[5.14]icos-15-en-9-yl]acetamide] |
|  | < 1000 | 260 °C (dec.) | NC(=O)C[C@@H]1NC(=O)C2(CCCCC2)NC(=O)[C@@H](CC(=O)O)[C@@H](c2ccc(CP(=O)(O)O)cc2)/C=C/C[C@@H](Cc2cccc3ccccc23)CNC1=O [Compound 233, 2-[(9S, 10S, 14S, 18S)-7, 16, 19-triaza-18-(carbamoylmethyl)-14-(naphthylmethyl)-8,17,20-trioxo-10-[4-(phosphonomethyl)phenyl]spiro[5.14]icos-11-en-9-yl]acetic acid] |
